Reference: PubChem BioAssay (NCI)
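A five-concentration, 48-hour dose response in 96-well plates underlies each endpoint, interpolated linearly between surrounding concentrations. At the TGI there is no net growth.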

What was measured:
Experiment in all cases: NCI anticancer screen, dose series, 48 h
HCT-116 colon = tested on: HCT-116 colon
OVCAR-5 ovarian = tested on: OVCAR-5 ovarian
MDA-MB-231 breast = tested on: MDA-MB-231 breast
SK-MEL-2 melanoma = tested on: SK-MEL-2 melanoma
HL-60(TB) leukemia = tested on: HL-60(TB) leukemia
MDA-N = tested on: MDA-N
OVCAR-4 ovarian = tested on: OVCAR-4 ovarian
CAKI-1 renal = tested on: CAKI-1 renal
CCRF-CEM leukemia = tested on: CCRF-CEM leukemia
EKVX NSCLC = tested on: EKVX NSCLC
SF-539 CNS = tested on: SF-539 CNS
ACHN renal = tested on: ACHN renal
IGROV1 ovarian = tested on: IGROV1 ovarian
NCI-H522 lung = tested on: NCI-H522 lung
COLO 205 colon = tested on: COLO 205 colon
MDA-MB-435 = tested on: MDA-MB-435
UACC-62 melanoma = tested on: UACC-62 melanoma
HOP-92 NSCLC = tested on: HOP-92 NSCLC
MALME-3M melanoma = tested on: MALME-3M melanoma
NCI/ADR-RES ovarian = tested on: NCI/ADR-RES ovarian
MCF7 breast = tested on: MCF7 breast
U251 CNS = tested on: U251 CNS
A498 renal = tested on: A498 renal
SNB-75 CNS = tested on: SNB-75 CNS
NCI-H460 lung = tested on: NCI-H460 lung
TK-10 renal = tested on: TK-10 renal
SNB-19 CNS = tested on: SNB-19 CNS
NCI-H226 lung = tested on: NCI-H226 lung
RXF 393 renal = tested on: RXF 393 renal
RPMI-8226 leukemia = tested on: RPMI-8226 leukemia
MOLT-4 leukemia = tested on: MOLT-4 leukemia
K-562 leukemia = tested on: K-562 leukemia
SN12C renal = tested on: SN12C renal
KM12 colon = tested on: KM12 colon
UACC-257 melanoma = tested on: UACC-257 melanoma
OVCAR-8 ovarian = tested on: OVCAR-8 ovarian
HT29 colon = tested on: HT29 colon
HS 578T breast = tested on: HS 578T breast
HCC-2998 colon = tested on: HCC-2998 colon
M14 melanoma = tested on: M14 melanoma
786-0 renal = tested on: 786-0 renal
PC-3 prostate = tested on: PC-3 prostate
A549 NSCLC = tested on: A549 NSCLC
SK-OV-3 ovarian = tested on: SK-OV-3 ovarian
BT-549 breast = tested on: BT-549 breast
HOP-62 NSCLC = tested on: HOP-62 NSCLC
SF-268 CNS = tested on: SF-268 CNS
LOX IMVI melanoma = tested on: LOX IMVI melanoma
SF-295 CNS = tested on: SF-295 CNS
SW-620 colon = tested on: SW-620 colon
SK-MEL-28 melanoma = tested on: SK-MEL-28 melanoma
HCT-15 colon = tested on: HCT-15 colon
SK-MEL-5 melanoma = tested on: SK-MEL-5 melanoma
SR leukemia = tested on: SR leukemia
OVCAR-3 ovarian = tested on: OVCAR-3 ovarian
DU-145 prostate = tested on: DU-145 prostate
NCI-H23 lung = tested on: NCI-H23 lung
T-47D breast = tested on: T-47D breast
UO-31 renal = tested on: UO-31 renal

Cc1ccc(-c2c(C#N)c(-c3ccc(Cl)cc3)c(C#N)c(=O)n2NS(=O)(=O)c2ccccc2)cc1
TGI (HCT-116 colon): > 100 µM
TGI (OVCAR-5 ovarian): > 100 µM
TGI (MDA-MB-231 breast): > 100 µM
TGI (SK-MEL-2 melanoma): > 100 µM
TGI (HL-60(TB) leukemia): > 100 µM
TGI (MDA-N): > 100 µM
TGI (OVCAR-4 ovarian): > 100 µM
TGI (CAKI-1 renal): > 100 µM
TGI (CCRF-CEM leukemia): > 100 µM
TGI (EKVX NSCLC): > 100 µM
TGI (SF-539 CNS): > 100 µM
TGI (ACHN renal): > 100 µM
TGI (IGROV1 ovarian): > 100 µM
TGI (NCI-H522 lung): > 100 µM
TGI (COLO 205 colon): > 100 µM
TGI (MDA-MB-435): > 100 µM
TGI (UACC-62 melanoma): > 100 µM
TGI (HOP-92 NSCLC): > 100 µM
TGI (MALME-3M melanoma): > 100 µM
TGI (NCI/ADR-RES ovarian): > 100 µM
TGI (MCF7 breast): > 100 µM
TGI (U251 CNS): > 100 µM
TGI (A498 renal): > 100 µM
TGI (SNB-75 CNS): > 100 µM
TGI (NCI-H460 lung): > 100 µM
TGI (TK-10 renal): > 100 µM
TGI (SNB-19 CNS): > 100 µM
TGI (NCI-H226 lung): > 100 µM
TGI (RXF 393 renal): > 100 µM
TGI (RPMI-8226 leukemia): 51.6 µM
TGI (MOLT-4 leukemia): > 100 µM
TGI (K-562 leukemia): > 100 µM
TGI (SN12C renal): > 100 µM
TGI (KM12 colon): > 100 µM
TGI (UACC-257 melanoma): > 100 µM
TGI (OVCAR-8 ovarian): > 100 µM
TGI (HT29 colon): > 100 µM
TGI (HS 578T breast): > 100 µM
TGI (HCC-2998 colon): > 100 µM
TGI (M14 melanoma): > 100 µM
TGI (786-0 renal): > 100 µM
TGI (PC-3 prostate): > 100 µM
TGI (A549 NSCLC): > 100 µM
TGI (SK-OV-3 ovarian): > 100 µM
TGI (BT-549 breast): > 100 µM
TGI (HOP-62 NSCLC): > 100 µM
TGI (SF-268 CNS): > 100 µM
TGI (LOX IMVI melanoma): > 100 µM
TGI (SF-295 CNS): > 100 µM
TGI (SW-620 colon): > 100 µM
TGI (SK-MEL-28 melanoma): > 100 µM
TGI (HCT-15 colon): > 100 µM
TGI (SK-MEL-5 melanoma): > 100 µM

CC1C(c2ccc(F)cc2)c2cc3c(cc2OC1N1CCCC1)OCO3 (stereo unspecified)
TGI (HCT-116 colon): > 100 µM
TGI (OVCAR-5 ovarian): > 100 µM
TGI (SK-MEL-2 melanoma): > 100 µM
TGI (MDA-N): > 100 µM
TGI (CAKI-1 renal): 58.4 µM
TGI (CCRF-CEM leukemia): > 100 µM
TGI (EKVX NSCLC): > 100 µM
TGI (SF-539 CNS): > 100 µM
TGI (SR leukemia): > 100 µM
TGI (ACHN renal): > 100 µM
TGI (IGROV1 ovarian): > 100 µM
TGI (NCI-H522 lung): > 100 µM
TGI (COLO 205 colon): > 100 µM
TGI (MDA-MB-435): > 100 µM
TGI (UACC-62 melanoma): > 100 µM
TGI (HOP-92 NSCLC): 45.7 µM
TGI (NCI/ADR-RES ovarian): > 100 µM
TGI (MCF7 breast): > 100 µM
TGI (SNB-75 CNS): > 100 µM
TGI (OVCAR-3 ovarian): > 100 µM
TGI (TK-10 renal): > 100 µM
TGI (SNB-19 CNS): > 100 µM
TGI (DU-145 prostate): > 100 µM
TGI (K-562 leukemia): > 100 µM
TGI (SN12C renal): > 100 µM
TGI (NCI-H23 lung): > 100 µM
TGI (KM12 colon): > 100 µM
TGI (T-47D breast): > 100 µM
TGI (UACC-257 melanoma): > 100 µM
TGI (OVCAR-8 ovarian): > 100 µM
TGI (HT29 colon): > 100 µM
TGI (HS 578T breast): 54.8 µM
TGI (HCC-2998 colon): > 100 µM
TGI (M14 melanoma): > 100 µM
TGI (786-0 renal): > 100 µM
TGI (PC-3 prostate): > 100 µM
TGI (A549 NSCLC): > 100 µM
TGI (HOP-62 NSCLC): > 100 µM
TGI (SF-268 CNS): > 100 µM
TGI (LOX IMVI melanoma): > 100 µM
TGI (UO-31 renal): > 100 µM
TGI (SF-295 CNS): > 100 µM
TGI (SW-620 colon): > 100 µM
TGI (SK-MEL-28 melanoma): > 100 µM
TGI (HCT-15 colon): > 100 µM
TGI (SK-MEL-5 melanoma): > 100 µM

CN(N=O)C(=O)Nc1c[nH]c(=O)[nH]c1=O
TGI (HCT-116 colon): > 100 µM
TGI (OVCAR-5 ovarian): > 100 µM
TGI (MDA-MB-231 breast): > 100 µM
TGI (SK-MEL-2 melanoma): > 100 µM
TGI (HL-60(TB) leukemia): > 100 µM
TGI (MDA-N): > 100 µM
TGI (OVCAR-4 ovarian): > 100 µM
TGI (CAKI-1 renal): > 100 µM
TGI (CCRF-CEM leukemia): > 100 µM
TGI (EKVX NSCLC): > 100 µM
TGI (SF-539 CNS): > 100 µM
TGI (ACHN renal): > 100 µM
TGI (IGROV1 ovarian): > 100 µM
TGI (NCI-H522 lung): > 100 µM
TGI (COLO 205 colon): > 100 µM
TGI (MDA-MB-435): > 100 µM
TGI (UACC-62 melanoma): > 100 µM
TGI (HOP-92 NSCLC): > 100 µM
TGI (MALME-3M melanoma): > 100 µM
TGI (NCI/ADR-RES ovarian): > 100 µM
TGI (MCF7 breast): > 100 µM
TGI (U251 CNS): > 100 µM
TGI (A498 renal): > 100 µM
TGI (SNB-75 CNS): > 100 µM
TGI (OVCAR-3 ovarian): > 100 µM
TGI (TK-10 renal): > 100 µM
TGI (SNB-19 CNS): > 100 µM
TGI (DU-145 prostate): > 100 µM
TGI (NCI-H226 lung): > 100 µM
TGI (MOLT-4 leukemia): > 100 µM
TGI (K-562 leukemia): > 100 µM
TGI (SN12C renal): > 100 µM
TGI (NCI-H23 lung): > 100 µM
TGI (KM12 colon): > 100 µM
TGI (T-47D breast): > 100 µM
TGI (UACC-257 melanoma): > 100 µM
TGI (OVCAR-8 ovarian): > 100 µM
TGI (HT29 colon): > 100 µM
TGI (HCC-2998 colon): > 100 µM
TGI (M14 melanoma): > 100 µM
TGI (786-0 renal): > 100 µM
TGI (PC-3 prostate): > 100 µM
TGI (A549 NSCLC): > 100 µM
TGI (SK-OV-3 ovarian): > 100 µM
TGI (HOP-62 NSCLC): > 100 µM
TGI (LOX IMVI melanoma): > 100 µM
TGI (UO-31 renal): > 100 µM
TGI (SF-295 CNS): > 100 µM
TGI (SW-620 colon): > 100 µM
TGI (SK-MEL-28 melanoma): > 100 µM
TGI (HCT-15 colon): > 100 µM
TGI (SK-MEL-5 melanoma): > 100 µM

CN(C1=NCCO1)c1cccc2ccccc12
TGI (HCT-116 colon): > 10 µM
TGI (OVCAR-5 ovarian): > 10 µM
TGI (MDA-MB-231 breast): > 10 µM
TGI (SK-MEL-2 melanoma): > 10 µM
TGI (HL-60(TB) leukemia): > 10 µM
TGI (MDA-N): > 10 µM
TGI (OVCAR-4 ovarian): > 10 µM
TGI (CAKI-1 renal): > 10 µM
TGI (CCRF-CEM leukemia): > 10 µM
TGI (EKVX NSCLC): > 10 µM
TGI (SF-539 CNS): > 10 µM
TGI (SR leukemia): > 10 µM
TGI (ACHN renal): > 10 µM
TGI (IGROV1 ovarian): > 10 µM
TGI (NCI-H522 lung): > 10 µM
TGI (COLO 205 colon): > 10 µM
TGI (MDA-MB-435): > 10 µM
TGI (UACC-62 melanoma): > 10 µM
TGI (MALME-3M melanoma): > 10 µM
TGI (NCI/ADR-RES ovarian): > 10 µM
TGI (MCF7 breast): > 10 µM
TGI (U251 CNS): > 10 µM
TGI (A498 renal): > 10 µM
TGI (SNB-75 CNS): > 10 µM
TGI (OVCAR-3 ovarian): > 10 µM
TGI (NCI-H460 lung): > 10 µM
TGI (TK-10 renal): > 10 µM
TGI (SNB-19 CNS): > 10 µM
TGI (DU-145 prostate): > 10 µM
TGI (NCI-H226 lung): > 10 µM
TGI (RXF 393 renal): > 10 µM
TGI (RPMI-8226 leukemia): > 10 µM
TGI (MOLT-4 leukemia): > 10 µM
TGI (K-562 leukemia): > 10 µM
TGI (SN12C renal): > 10 µM
TGI (NCI-H23 lung): > 10 µM
TGI (KM12 colon): > 10 µM
TGI (T-47D breast): > 10 µM
TGI (OVCAR-8 ovarian): > 10 µM
TGI (HT29 colon): > 10 µM
TGI (HS 578T breast): > 10 µM
TGI (HCC-2998 colon): > 10 µM
TGI (M14 melanoma): > 10 µM
TGI (PC-3 prostate): > 10 µM
TGI (A549 NSCLC): > 10 µM
TGI (SK-OV-3 ovarian): > 10 µM
TGI (HOP-62 NSCLC): > 10 µM
TGI (SF-268 CNS): > 10 µM
TGI (LOX IMVI melanoma): > 10 µM
TGI (UO-31 renal): > 10 µM
TGI (SF-295 CNS): > 10 µM
TGI (SW-620 colon): > 10 µM
TGI (SK-MEL-28 melanoma): > 10 µM
TGI (HCT-15 colon): > 10 µM
TGI (SK-MEL-5 melanoma): > 10 µM
